Molecular target: T1, horseradish peroxidase (HRP) tagged delF508-CFTR (Homo sapiens, UniProt P13569, DEL508-508)
T1 construct: expressed in transfected cells
Assay: Measurement of delF508-CFTR-HRP surface expression in CFBE41o- cells;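 on DelF508-CFTR-HRP Amax %: percent efficacy relative to reference corrector lumacaftor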
Format: cell-based
Conditions: delF508-CFTR-HRP surface expression, CFBE41o- cells; for Emax: read-out: DelF508-CFTR-HRP Amax %; for EC50: read-out: DelF508-CFTR-HRP EC50
From the text: Measurement of delF508-CFTR-HRP Surface Expression in CFBE41o-Cells
This assay quantifies the cell surface expressions of the mutant CFTR channel using an extracellular HRP tag.
A cellular assay was developed to measure surface expression of horseradish peroxidase (HRP) tagged delF508-CFTR in the human bronchial epithelial immortalized CFBE41o-cell line (Phuan, P. W., et al, (2014) Molecular Pharmacology 86:42-51). Specifically, the HRP sequence was inserted into the fourth extracellular loop of delF508-CFTR and stably expressed in CFBE41o-cells. Cells were seeded in 384 well plate at a density of 5000 cells/well and incubated at 37° C. for 12 to 24 hours in medium (Gibco MEM #11095, 10% FBS, 10 mM HEPES, […], 200 μg/mL G418, 3 μg/mL Puromycin). The delF508-CFTR-HRP expression was induced with 500 ng/mL doxycycline (Sigma D-9891, dissolved in H2O and sterile filtered) in medium and the cells were incubated at 37° C. for 48h. Old medium was removed and fresh medium was added containing 500 ng/mL doxycycline and unknown test compound at required test concentration in DMSO, not exceeding 0.5% final DMSO concentration. The highest concentration tested was 10 μM with a 10-point concentration response curve using a 3-fold dilution. After addition of compounds, the cells were incubated for 24h at 37° C. On the final day, cells were washed four times in PBS containing 1 mM MgCl2 and 0.1 mM CaCl2. HRP-Substrate (SuperSignal ELISA Pico, Fisher #37069) 20 μl/well was added and the luminescence signal was determined (Viewlux, Perkin Elmer). Light was emitted upon addition of exogenous HRP-Substrate only when delF508-CFTR-HRP reached the cell surface and the HRP tag was accessible to the HRP-Substrate (note: HRP-Substrate cannot cross the lipid bilayer to reach delF508-CFTR-HRP misfolded within the cell).
The median activity for the lowest concentration of the compounds on each assay plate was calculated and this value was used to normalize the signal for each well on the respective plate. Three replicates at each concentrations for every compound were run to determine one EC50. The median value was determined and used to calculate compound activities as described below. Effective half maximal values (EC50) were calculated for each compound by performing logistic regression on measured dose-response data points using the equation:
[formula] where “Y” is the observed activity, “Bottom” is the lowest observed value, “Top” is the highest observed value, and the “Hill coefficient” gives the largest absolute value of the slope. The curve fitting is carried out by a curve fitting program implemented at GNF using Matlab (Mathworks).
The dose response curves also were used to calculate Fold Change (FC) using the equation: […]
Compound efficacy relative to the reference compound 3-(6-(1-(2,2-difluorobenzo[d][1,3]dioxol-5-yl)cyclopropane-1-carboxamido)-3-methylpyridin-2-yl)benzoic acid was determined using the following formula: […]

T1 sequence (P13569 with tags, fused parts or gaps DEL508-508): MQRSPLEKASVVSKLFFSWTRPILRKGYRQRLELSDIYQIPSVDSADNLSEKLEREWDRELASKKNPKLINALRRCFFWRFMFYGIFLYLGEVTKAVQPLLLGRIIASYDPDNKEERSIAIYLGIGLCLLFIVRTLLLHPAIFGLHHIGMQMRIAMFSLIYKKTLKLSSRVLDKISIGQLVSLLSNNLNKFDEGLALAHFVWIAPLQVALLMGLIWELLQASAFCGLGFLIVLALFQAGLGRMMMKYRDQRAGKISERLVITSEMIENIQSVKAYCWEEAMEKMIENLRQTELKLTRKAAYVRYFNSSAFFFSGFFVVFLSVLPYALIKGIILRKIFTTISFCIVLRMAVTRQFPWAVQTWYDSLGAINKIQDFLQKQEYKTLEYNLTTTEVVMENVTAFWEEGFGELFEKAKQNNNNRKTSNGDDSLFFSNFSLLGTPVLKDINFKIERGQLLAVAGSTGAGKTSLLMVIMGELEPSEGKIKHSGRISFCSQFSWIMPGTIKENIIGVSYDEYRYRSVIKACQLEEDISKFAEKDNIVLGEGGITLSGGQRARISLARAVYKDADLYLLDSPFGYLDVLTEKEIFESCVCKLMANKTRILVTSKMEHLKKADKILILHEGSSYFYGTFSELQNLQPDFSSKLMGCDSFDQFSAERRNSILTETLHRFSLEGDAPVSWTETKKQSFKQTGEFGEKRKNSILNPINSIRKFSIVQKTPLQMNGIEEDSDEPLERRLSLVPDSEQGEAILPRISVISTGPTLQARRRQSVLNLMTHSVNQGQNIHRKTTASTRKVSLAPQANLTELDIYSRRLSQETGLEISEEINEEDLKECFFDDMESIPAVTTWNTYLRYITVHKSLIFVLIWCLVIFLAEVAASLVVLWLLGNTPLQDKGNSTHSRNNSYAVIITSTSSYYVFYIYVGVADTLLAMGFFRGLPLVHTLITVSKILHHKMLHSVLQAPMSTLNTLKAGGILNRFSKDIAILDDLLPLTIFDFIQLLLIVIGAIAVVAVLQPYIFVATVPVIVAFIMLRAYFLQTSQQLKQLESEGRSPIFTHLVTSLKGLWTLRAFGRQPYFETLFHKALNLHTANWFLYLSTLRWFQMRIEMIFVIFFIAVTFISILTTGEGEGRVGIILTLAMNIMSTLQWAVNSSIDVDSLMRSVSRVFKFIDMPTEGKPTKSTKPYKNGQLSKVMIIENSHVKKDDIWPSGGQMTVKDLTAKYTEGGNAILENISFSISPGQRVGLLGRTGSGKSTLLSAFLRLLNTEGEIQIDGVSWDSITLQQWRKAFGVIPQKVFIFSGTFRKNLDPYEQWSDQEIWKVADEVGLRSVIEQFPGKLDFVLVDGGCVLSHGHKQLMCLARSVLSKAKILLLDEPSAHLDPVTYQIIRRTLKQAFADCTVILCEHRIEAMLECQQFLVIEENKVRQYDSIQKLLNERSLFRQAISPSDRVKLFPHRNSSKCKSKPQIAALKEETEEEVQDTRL

Structure (SMILES)	Emax	EC50
Cc1ccccc1-c1nc(NS(=O)(=O)c2cccc(N)n2)cc(C(F)(F)F)c1Cl [Example 22, 6-amino-N-(5-chloro-6-(o-tolyl)-4-(trifluoromethyl)pyridin-2-yl)pyridine-2-sulfonamide]	490%	1620 nM
Cc1ccccc1-c1nc(NS(=O)(=O)c2cccc(N)n2)ccc1Br [Example 23, 6-amino-N-(5-bromo-6-(o-tolyl)pyridin-2-yl)pyridine-2-sulfonamide]	486%	1880 nM
Nc1cccc(S(=O)(=O)Nc2ccc(Cl)c(-c3ccccc3Cl)n2)n1 [Example 24, 6-amino-N-(5-chloro-6-(2-chlorophenyl)pyridin-2-yl)pyridine-2-sulfonamide]	485%	1460 nM
[2H]C([2H])([2H])c1ccccc1-c1nc(NS(=O)(=O)c2ccnc(N)c2)ccc1Cl [Example 26, 2-amino-N-(5-chloro-6-(2-(methyl-d3)phenyl)pyridin-2-yl)pyridine-4-sulfonamide]	450%	2200 nM
Nc1cccc(S(=O)(=O)Nc2ccc(Cl)c(-c3ccc(F)cc3C3CC3)n2)n1 [Example 27, 6-amino-N-(5-chloro-6-(2-cyclopropyl-4-fluorophenyl)pyridin-2-yl)pyridine-2-sulfonamide]	430%	1720 nM
CCc1ccccc1-c1nc(NS(=O)(=O)c2cccc(N)n2)ccc1Cl [Example 29, 6-amino-N-(5-chloro-6-(2-ethylphenyl)pyridin-2-yl)pyridine-2-sulfonamide]	429%	1080 nM
Cc1cc(F)cc(C)c1-c1nc(NS(=O)(=O)c2cccc(N)n2)ccc1Cl [Example 30, 6-amino-N-(5-chloro-6-(4-fluoro-2,6-dimethylphenyl)pyridin-2-yl)pyridine-2-sulfonamide]	421%	1700 nM
Cc1cccc(F)c1-c1nc(NS(=O)(=O)c2cccc(N)n2)ccc1Cl [Example 31, 6-amino-N-(5-chloro-6-(2-fluoro-6-methylphenyl)pyridin-2-yl)pyridine-2-sulfonamide]	418%	1320 nM
Cc1cc(C)c(-c2nc(NS(=O)(=O)c3cccc(N)n3)ccc2Cl)c(C)c1 [Example 32, 6-amino-N-(5-chloro-6-mesitylpyridin-2-yl)pyridine-2-sulfonamide]	412%	1640 nM
Cc1ccccc1-c1nc(NS(=O)(=O)c2nc(N)ccc2F)ccc1Cl [Example 33, 6-amino-N-(5-chloro-6-(o-tolyl)pyridin-2-yl)-3-fluoropyridine-2-sulfonamide]	404%	2200 nM
CC(C)c1ccccc1-c1nc(NS(=O)(=O)c2cccc(N)n2)ccc1F [Example 35, 6-amino-N-(5-fluoro-6-(2-isopropylphenyl)pyridin-2-yl)pyridine-2-sulfonamide]	398%	2110 nM
Cc1cc(F)ccc1-c1nc(NS(=O)(=O)c2cccc(N)n2)ccc1Cl [Example 37, 6-amino-N-(5-chloro-6-(4-fluoro-2-methylphenyl)pyridin-2-yl)pyridine-2-sulfonamide]	386%	2290 nM
Cc1ccc(Cl)c(-c2nc(NS(=O)(=O)c3cccc(N)n3)ccc2Cl)c1F [Example 38, 6-amino-N-(5-chloro-6-(6-chloro-2-fluoro-3-methylphenyl)pyridin-2-yl)pyridine-2-sulfonamide]	376%	2000 nM
Nc1cccc(S(=O)(=O)Nc2ccc(Cl)c(-c3c(F)cccc3Cl)n2)n1 [Example 39, 6-amino-N-(5-chloro-6-(2-chloro-6-fluorophenyl)pyridin-2-yl)pyridine-2-sulfonamide]	374%	1900 nM
Cc1ccccc1-c1nc(NS(=O)(=O)c2ccc(N)nc2)ccc1Cl [Example 40, 6-amino-N-(5-chloro-6-(o-tolyl)pyridin-2-yl)pyridine-3-sulfonamide]	373%	2360 nM
CC(C)c1ccccc1-c1nc(NS(=O)(=O)c2ccc(N)nc2)ccc1Cl [Example 45, 6-amino-N-(5-chloro-6-(2-isopropylphenyl)pyridin-2-yl)pyridine-3-sulfonamide]	345%	1240 nM
Cc1ccc(F)cc1-c1nc(NS(=O)(=O)c2ccnc(N)c2)ccc1Cl [Example 46, 2-amino-N-(5-chloro-6-(5-fluoro-2-methylphenyl)pyridin-2-yl)pyridine-4-sulfonamide]	339%	1950 nM
Cc1cccc(C)c1-c1nc(NS(=O)(=O)c2ccc(N)nc2)ccc1Cl [Example 47, 6-amino-N-(5-chloro-6-(2,6-dimethylphenyl)pyridin-2-yl)pyridine-3-sulfonamide]	335%	1400 nM
CC(F)(F)c1ccccc1-c1nc(NS(=O)(=O)c2cccc(N)n2)ccc1Cl [Example 48, 6-amino-N-(5-chloro-6-(2-(1,1-difluoroethyl)phenyl)pyridin-2-yl)pyridine-2-sulfonamide]	334%	2330 nM
Cc1ccc(C(F)(F)F)cc1-c1nc(NS(=O)(=O)c2ccnc(N)c2)ccc1Cl [Example 49, 2-amino-N-(5-chloro-6-(2-methyl-5-(trifluoromethyl)phenyl)pyridin-2-yl)pyridine-4-sulfonamide]	333%	3050 nM
CC(C)c1ccccc1-c1nc(NS(=O)(=O)c2cccc(N)n2)ccc1Cl [Example 50, 6-amino-N-(5-chloro-6-(2-isopropylphenyl)pyridin-2-yl)pyridine-2-sulfonamide]	332%	683 nM
Cc1ccc(C(F)(F)F)cc1-c1nc(NS(=O)(=O)c2cccc(N)n2)ccc1Cl [Example 51, 6-amino-N-(5-chloro-6-(2-methyl-5-(trifluoromethyl)phenyl)pyridin-2-yl)pyridine-2-sulfonamide]	332%	1980 nM
Nc1cccc(S(=O)(=O)Nc2ccc(Cl)c(-c3c(Cl)cccc3C(F)(F)F)n2)n1 [Example 52, 6-amino-N-(5-chloro-6-(2-chloro-6-(trifluoromethyl)phenyl)pyridin-2-yl)pyridine-2-sulfonamide]	327%	1380 nM
Cc1cccc(C(F)(F)F)c1-c1nc(NS(=O)(=O)c2cccc(N)n2)ccc1Cl [Example 53, 6-amino-N-(5-chloro-6-(2-methyl-6-(trifluoromethyl)phenyl)pyridin-2-yl)pyridine-2-sulfonamide]	325%	1840 nM
Nc1ccc(S(=O)(=O)Nc2ccc(Cl)c(-c3ccccc3C3CC3)n2)cn1 [Example 54, 6-amino-N-(5-chloro-6-(2-cyclopropylphenyl)pyridin-2-yl)pyridine-3-sulfonamide]	305%	2350 nM
Cc1ccc(F)c(-c2nc(NS(=O)(=O)c3cccc(N)n3)ccc2Cl)c1Cl [Example 58, 6-amino-N-(5-chloro-6-(2-chloro-6-fluoro-3-methylphenyl)pyridin-2-yl)pyridine-2-sulfonamide]	270%	1780 nM
Nc1cccc(S(=O)(=O)Nc2ccc(Cl)c(-c3ccccc3OC(F)(F)F)n2)n1 [Example 59, 6-amino-N-(5-chloro-6-(2-(trifluoromethoxy)phenyl)pyridin-2-yl)pyridine-2-sulfonamide]	258%	1100 nM
Cc1cccc(F)c1-c1nc(NS(=O)(=O)c2ccc(N)nc2)ccc1Cl [Example 60, 6-amino-N-(5-chloro-6-(2-fluoro-6-methylphenyl)pyridin-2-yl)pyridine-3-sulfonamide]	253%	2980 nM
Cc1cc(NS(=O)(=O)c2cccc(N)n2)nc(-c2c(C)cccc2C)c1 [Example 63, 6-amino-N-(6-(2,6-dimethylphenyl)-4-methylpyridin-2-yl)pyridine-2-sulfonamide]	226%	2690 nM
Cc1ccc(C#N)cc1-c1nc(NS(=O)(=O)c2ccnc(N)c2)ccc1C(F)(F)F [Example 64, 2-amino-N-(6-(5-cyano-2-methylphenyl)-5-(trifluoromethyl)pyridin-2-yl)pyridine-4-sulfonamide]	223%	1960 nM

From patent publication US11066369B2, “N-(pyridin-2-yl)pyridine-sulfonamide derivatives and their use in the treatment of disease” (Novartis AG, priority 2016, dated 2021)
